From BigSolDB 2.1

`Nc1cccc(C(=O)O)c1O` gave a solubility (mole fraction) (in n-propanol, 293.2 K) of 0.000339, a solubility (mole fraction) (in n-propanol, 298.2 K) of 0.00046 and a solubility (mole fraction) (in n-propanol, 303.2 K) of 0.000522. The solubility (mole fraction) (in n-propanol, 308.2 K) was 0.00058, the solubility (mole fraction) (in n-propanol, 313.2 K) was 0.000681 and the solubility (mole fraction) (in water, 293.2 K) was 0.00012. It also gave a solubility (mole fraction) (in water, 298.2 K) of 0.000122, a solubility (mole fraction) (in water, 303.2 K) of 0.000139 and a solubility (mole fraction) (in water, 308.2 K) of 0.000148. The solubility (mole fraction) (in water, 313.2 K) was 0.000165.
